≈ marks a conversion by molar mass, not a printed value.
Experiments:
[1] = In vitro skin permeation (diffusion) study, open Franz diffusion cells, whole abdominal human skin; details: for Flux, IPM: steady state, IPM solution not saturated, human skin
[2] = pH 7
physchem = assay: physchem
Procedure: (§1) The experimental methods used for these determinations are described below.
The mixtures were placed in an ultrasonic bath for 10 min and then rotated on a mechanical spindle for 24 h and filtered. After rotation for 1 h the pH of the phosphate buffer mixtures was adjusted to 7.0. An aliquot of the filtrates was diluted with water or acetonitrile and analyzed by HPLC.

[3] = Apparent partition coefficient (P) between octanol and pH 7.4 aqueous buffer at 21° C.; details: octanol / phosphate buffer
Procedure: as §1
The concentration of the compounds in the aqueous phase before and after partitioning was determined by HPLC analysis, and the partition coefficients determined.

in vitro = details: human
[4] = isopropyl myristate, organic solvent or mixture
[5] = phosphate buffer, pH 7, aqueous buffer

Row | Molecule | Flux, IPM ([1]; 200 mg/ml) [μg/cm^2 /h] | Flux, Buffer [2] [μg/cm^2 /h] | solubility at 24 h (physchem; [4]) [mg/mL] | solubility at 24 h (physchem; [5]) [mg/mL] | logD [3] | Papp (in vitro) [×10⁻⁶ cm/s] | Papp (in vitro; pH 7) [×10⁻⁶ cm/s] | Amount penetrated present in the receptor phase as the 6-monoester ([1]; receptor phase composition after human skin permeation) [%] | Flux, IPM ([1]; 125 mg/ml) [μg/cm^2 /h]
1 | 3-Butoxy-morphlne | 8.3 ± 2.2 | – | – | – | – | – | – | – | –
2 | CCCCCC(=O)Oc1ccc2c3c1O[C@H]1[C@@H](OC(=O)CCCCC)C=C[C@H]4[C@@H](C2)N(C)CC[C@@]341 [3,6-Dihexanoyl-morphine, 3,6-dihexanoyl morphine] | 11.7 ± 1.2 | 1.7 ± 0.2 | > 200 | 0.02 (≈ 0.0415 mM) | > 4 | > 0.0444 | 38.9 | – | –
3 | CC(C)C(=O)Oc1ccc2c3c1O[C@H]1[C@@H](OC(=O)C(C)C)C=C[C@H]4[C@@H](C2)N(C)CC[C@@]341 [3,6-Diisobutyryl-morphine, 3,6-diisobutyryl morphine] | – | – | 80 (≈ 188 mM) | 0.6 (≈ 1.41 mM) | 2.6 | – | – | – | –
4 | CCC(=O)Oc1ccc2c3c1O[C@H]1[C@@H](OC(=O)CC)C=C[C@H]4[C@@H](C2)N(C)CC[C@@]341 [3,6-Dipropionyl-morphine, 3,6-dipropionyl morphine] | – | 2.5 ± 0.5 | 41 (≈ 103 mM) | 3.6 (≈ 9.06 mM) | 1.66 | – | 0.278 | ~50 | –
5 | CC(=O)Oc1ccc2c3c1O[C@H]1[C@@H](O)C=C[C@H]4[C@@H](C2)N(C)CC[C@@]341 [3-Acetyl-morphine] | 11.4 ± 1.8 | – | – | – | – | – | – | – | –
6 | CCCCCC(=O)Oc1ccc2c3c1O[C@H]1[C@@H](O)C=C[C@H]4[C@@H](C2)N(C)CC[C@@]341 [3-Hexanoyl-morphine, 3-hexanoyl morphine] | – | 25.3 ± 4.2 | > 150 | 2.6 (≈ 6.78 mM) | 2.04 | > 0.0667 | 3.61 | – | 35.6 ± 12.0
7 | CC(C)C(=O)Oc1ccc2c3c1O[C@H]1[C@@H](O)C=C[C@H]4[C@@H](C2)N(C)CC[C@@]341 [3-Isobutyryl-morphine] | 27.0 ± 3.3 | – | – | – | – | – | – | – | –
8 | CCC(=O)Oc1ccc2c3c1O[C@H]1[C@@H](O)C=C[C@H]4[C@@H](C2)N(C)CC[C@@]341 [3-Propionyl-morphine, 3-propionyl morphine] | – | – | 79 (≈ 231 mM) | 21 (≈ 61.5 mM) | 0.66 | – | – | – | –
9 | CCCCC(=O)Oc1ccc2c3c1O[C@H]1[C@@H](O)C=C[C@H]4[C@@H](C2)N(C)CC[C@@]341 [3-Valeryl-morphine] | 16.5 ± 2.7 | – | – | – | – | – | – | – | –

— patent publication US5908846A (priority 1993, dated 1999)
